# Measured values published in patent US20250230193A1, “CYCLIC COMPOUND HAVING SELECTIVE KRAS INHIBITORY EFFECT ON HRAS AND NRAS” (CHUGAI SEIYAKU KABUSHIKI KAISHA, priority 2022, published 2025).
# Legend:
# [1] = target: GDP-bound HRAS wild-type protein (Homo sapiens, UniProt P01112); assay: Binding to HRAS by surface plasmon resonance (SPR), Single Cycle Kinetics; conditions: KD ratio HRAS/KRAS, SPR, GDP-bound wild-type proteins
# [2] = target: GDP-bound NRAS wild-type protein (Homo sapiens, UniProt P01111); assay: Binding to NRAS by surface plasmon resonance (SPR), Single Cycle Kinetics; conditions: KD ratio NRAS/KRAS, SPR, GDP-bound wild-type proteins
# Sequence of GDP-bound NRAS wild-type protein (P01111 whole entry): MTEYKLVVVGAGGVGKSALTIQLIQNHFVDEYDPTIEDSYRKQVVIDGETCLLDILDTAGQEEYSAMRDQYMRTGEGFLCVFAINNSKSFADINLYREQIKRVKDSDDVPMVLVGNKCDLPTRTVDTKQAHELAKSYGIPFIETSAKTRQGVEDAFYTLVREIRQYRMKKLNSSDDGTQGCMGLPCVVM
# Sequence of GDP-bound HRAS wild-type protein (P01112 whole entry): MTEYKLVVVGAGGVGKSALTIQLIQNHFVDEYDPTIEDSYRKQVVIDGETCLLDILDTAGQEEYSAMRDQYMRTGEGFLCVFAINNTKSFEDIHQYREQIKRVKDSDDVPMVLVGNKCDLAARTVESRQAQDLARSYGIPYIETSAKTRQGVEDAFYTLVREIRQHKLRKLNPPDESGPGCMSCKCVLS
SMILES,HRAS/KRAS (ratio of KD value with respect to GDP-bound HRAS wild-type protein to KD value with respect to KRAS) [1],NRAS/KRAS (ratio of KD value with respect to GDP-bound NRAS wild-type protein to KD value with respect to KRAS) [2]
CCC[C@H]1C(=O)N[C@@H](C2CCCCC2)C(=O)N(C)CC(=O)N(C)[C@H]2C/C=C\CCN(C2=O)[C@@H](Cc2ccc(C(F)(F)F)cc2)C(=O)N(C)CC(=O)N[C@@H](CCc2ccc(C(F)(F)F)c(Cl)c2)C(=O)N2C[C@H](OCC)C[C@H]2C(=O)NC2(CC(C)(C)C2)C(=O)N(C)[C@@H]([C@@H](C)CC)C(=O)N(C)[C@H](C(=O)N(C)C)CC(=O)N1C [PP3015],A (a compound having 10 or more and less than 20 is denoted as A),AA (a compound having 20 or more is denoted as AA)
CCC[C@H]1C(=O)N[C@@H](C2CCCCC2)C(=O)N(C)CC(=O)N(C)[C@H]2C/C=C\CCN(C2=O)[C@@H](Cc2ccc(C(F)(F)F)cc2)C(=O)N(C)CC(=O)N[C@@H](CCc2ccc(C(F)(F)F)c(Cl)c2)C(=O)N2C[C@H](OCC)C[C@H]2C(=O)NC2(CC(C)(C)C2)C(=O)N(C)[C@@H](CC(C)C)C(=O)N(C)[C@H](C(=O)N(C)C)CC(=O)N1C [PP3017],A (a compound having 10 or more and less than 20 is denoted as A),AA (a compound having 20 or more is denoted as AA)
CCC[C@H]1C(=O)N[C@@H](C2CCCCC2)C(=O)N(C)CC(=O)N(C)[C@H]2C/C=C\CCN(C2=O)[C@@H](Cc2ccc(C)cc2)C(=O)N(C)CC(=O)N[C@@H](CCc2ccc(C(F)(F)F)c(Cl)c2)C(=O)N2C[C@H](OCC)C[C@H]2C(=O)NC2(CC(C)(C)C2)C(=O)N(C)[C@@H](CC(C)(C)C)C(=O)N(C)[C@H](C(=O)N(C)C)CC(=O)N1C [PP3018],B (a compound having 3 or more and less than 10 is denoted as B),A (a compound having 10 or more and less than 20 is denoted as A)
CCC[C@H]1C(=O)N[C@@H](C2CCCCC2)C(=O)N(C)CC(=O)N(C)[C@H]2C/C=C\CCN(C2=O)[C@@H](Cc2ccc(C)cc2)C(=O)N(C)CC(=O)N[C@@H](CCc2ccc(C(F)(F)F)c(Cl)c2)C(=O)N2C[C@H](OCC)C[C@H]2C(=O)NC2(CC(C)(C)C2)C(=O)N(C)[C@@H](CC(C)C)C(=O)N(C)[C@H](C(=O)N(C)C)CC(=O)N1C [PP3021],A (a compound having 10 or more and less than 20 is denoted as A),AA (a compound having 20 or more is denoted as AA)
CCC[C@H]1C(=O)N[C@@H](C2CCOCC2)C(=O)N(C)CC(=O)N(C)[C@H]2C/C=C\CCN(C2=O)[C@@H](Cc2ccc(C(F)(F)F)cc2)C(=O)N(C)CC(=O)N[C@@H](CCc2ccc(C(F)(F)F)c(Cl)c2)C(=O)N2C[C@H](OCC)C[C@H]2C(=O)NC2(CC(C)(C)C2)C(=O)N(C)[C@@H](CC(C)(C)C)C(=O)N(C)[C@H](C(=O)N(C)C)CC(=O)N1C [PP3022],A (a compound having 10 or more and less than 20 is denoted as A),AA (a compound having 20 or more is denoted as AA)
CCC[C@H]1C(=O)N[C@@H](C2CCOCC2)C(=O)N(C)CC(=O)N(C)[C@H]2C/C=C\CCN(C2=O)[C@@H](Cc2ccc(C)cc2)C(=O)N(C)CC(=O)N[C@@H](CCc2ccc(C(F)(F)F)c(Cl)c2)C(=O)N2C[C@H](OCC)C[C@H]2C(=O)NC2(CC(C)(C)C2)C(=O)N(C)[C@@H](CC(C)(C)C)C(=O)N(C)[C@H](C(=O)N(C)C)CC(=O)N1C [PP3026],A (a compound having 10 or more and less than 20 is denoted as A),A (a compound having 10 or more and less than 20 is denoted as A)
CCC[C@H]1C(=O)N[C@@H]([C@@H](C)CC)C(=O)N(C)CC(=O)N(C)[C@H]2C/C=C\CCN(C2=O)[C@@H](Cc2ccc(C(F)(F)F)cc2)C(=O)N(C)CC(=O)N[C@@H](CCc2ccc(Cl)c(Cl)c2)C(=O)N2CCCCC[C@H]2C(=O)NC2(CC(C)(C)C2)C(=O)N(C)[C@@H](C(CC)CC)C(=O)N(C)[C@H](C(=O)N(C)C)CC(=O)N1C [PP3031],A (a compound having 10 or more and less than 20 is denoted as A),AA (a compound having 20 or more is denoted as AA)
CCO[C@@H]1C[C@H]2C(=O)NC3(CC(C)(C)C3)C(=O)N(C)[C@@H](C(CC)CC)C(=O)N(C)[C@H](C(=O)N(C)C)CC(=O)N(C)[C@H]3CCCCCCc4ccc(cc4)C[C@@H](C(=O)N(C)CC(=O)N[C@@H](CCc4ccc(C(F)(F)F)c(OC)c4)C(=O)N2C1)N1CC/C=C\C[C@@H](C1=O)N(C)C(=O)CN(C)C(=O)[C@H]([C@@H](C)CC)NC3=O [PP3032],A (a compound having 10 or more and less than 20 is denoted as A),AA (a compound having 20 or more is denoted as AA)
"CCO[C@@H]1C[C@H]2C(=O)NC3(CCC3)C(=O)N(C)[C@@H](C3CCCC3)C(=O)N(C)[C@H](C(=O)N3CCCCC3)CC(=O)N(C)[C@H]3CCCCCCc4ccc(cc4)C[C@@H](C(=O)N(C)CC(=O)N[C@@H](CCc4ccc(C(F)(F)F)c(OC)c4)C(=O)N2C1)N1CC/C=C\C[C@@H](C1=O)N(C)C(=O)CN(C)C(=O)[C@H]([C@@H](C)CC)NC3=O [PP3033, (1S,7S,11R,13S,19S,22S,26S,29S,35S,37Z)-19-cyclopentyl-11-ethoxy-7-[2-[3-methoxy-4-(trifluoromethyl)phenyl]ethyl]-3,18,21,25,31,34-hexamethyl-29-[(1S)-1-methylpropyl]-22-(piperidine-1-carbonyl)spiro[3,6,9,15,18,21,25,28,31,34,41-undecazapentacyclo[24.15.11.2^43,46.1^35,41.0^9,13]pentapentaconta-37,43(54),44,46(53)-tetraene-16,1′-cyclobutane]-2,5,8,14,17,20,24,27,30,33,55-undecone]",B (a compound having 3 or more and less than 10 is denoted as B),A (a compound having 10 or more and less than 20 is denoted as A)
"CCO[C@@H]1C[C@H]2C(=O)NC3(CC(C)(C)C3)C(=O)N(C)[C@@H](C3CCCC3)C(=O)N(C)[C@H](C(=O)N3CCCC3)CC(=O)N(C)[C@H]3CCCCCCc4ccc(cc4)C[C@@H](C(=O)N(C)CC(=O)N[C@@H](CCc4ccc(C(F)(F)F)c(OC)c4)C(=O)N2C1)N1CC/C=C\C[C@@H](C1=O)N(C)C(=O)CN(C)C(=O)[C@H]([C@@H](C)CC)NC3=O [PP3034, (1S,7S,11R,13S,19S,22S,26S,29S,35S,37Z)-19-cyclopentyl-11-ethoxy-7-[2-[3-methoxy-4-(trifluoromethyl)phenyl]ethyl]-3,3′,3′,18,21,25,31,34-octamethyl-29-[(1S)-1-methylpropyl]-22-(pyrrolidine-1-carbonyl)spiro[3,6,9,15,18,21,25,28,31,34,41-undecazapentacyclo[24.15.11.2^43,46.1^35,41.0^9,13]pentapentaconta-37,43(54),44,46(53)-tetraene-16,1′-cyclobutane]-2,5,8,14,17,20,24,27,30,33,55-undecone]",B (a compound having 3 or more and less than 10 is denoted as B),A (a compound having 10 or more and less than 20 is denoted as A)
CCO[C@@H]1C[C@H]2C(=O)NC3(CC(C)(C)C3)C(=O)N(C)[C@@H](C(CC)CC)C(=O)N(C)[C@H](C(=O)N(C)C)CC(=O)N(C)[C@H]3CCCCCc4ccc(cc4)C[C@@H](C(=O)N(C)CC(=O)N[C@@H](CCc4ccc(C(F)(F)F)c(OC)c4)C(=O)N2C1)N1CC/C=C\C[C@@H](C1=O)N(C)C(=O)CN(C)C(=O)[C@H]([C@@H](C)CC)NC3=O [PP3035],A (a compound having 10 or more and less than 20 is denoted as A),AA (a compound having 20 or more is denoted as AA)
"CCO[C@@H]1C[C@H]2C(=O)NC3(CC(C)(C)C3)C(=O)N(C)[C@@H](C3CCCC3)C(=O)N(C)[C@H](C(=O)N3CCCCC3)CC(=O)N(C)[C@H]3CCCCCc4ccc(cc4)C[C@@H](C(=O)N(C)CC(=O)N[C@@H](CCc4ccc(C(F)(F)F)c(OC)c4)C(=O)N2C1)N1CC/C=C\C[C@@H](C1=O)N(C)C(=O)CN(C)C(=O)[C@H]([C@@H](C)CC)NC3=O [PP3036, (1S,7S,11R,13S,19S,22S,26S,29S,35S,37Z)-19-cyclopentyl-11-ethoxy-7-[2-[3-methoxy-4-(trifluoromethyl)phenyl]ethyl]-3,3′,3′,18,21,25,31,34-octamethyl-29-[(1S)-1-methylpropyl]-22-(piperidine-1-carbonyl)spiro[3,6,9,15,18,21,25,28,31,34,41-undecazapentacyclo[24.15.10.2^43,46.1^35,41.0^9,13]tetrapentaconta-37,43(53),44,46(52)-tetraene-16,1′-cyclobutane]-2,5,8,14,17,20,24,27,30,33,54-undecone]",B (a compound having 3 or more and less than 10 is denoted as B),A (a compound having 10 or more and less than 20 is denoted as A)
